Measurements taken from patent US8563717B2, “Adenine derivatives” (GlaxoSmithKline LLC, priority 2008, dated 2013).
Where a name gives a salt, the structure may show the parent alone.

These compounds were tested on Interferon-α (assay: Induction of Interferon-α using cryopreserved human PBMCs). Conditions: PBMC, 24 h incubation, normalised to 1 uM resiquimod, read-out: mean pEC50 for induction of IFN-α (converted).
Format: cell-based
Description: Assay for the Induction of Interferon-α Using Cryopreserved Human Peripheral Blood Mononuclear Cells (PBMCs)
Compounds were dissolved in DMSO. Serial 2-fold dilutions with DMSO were prepared and 0.25 μl dispensed into 384-well clear Greiner polypropylene plates.
Blood samples of up to 200 ml were obtained from healthy human donors. Whole blood in 25 ml volumes was overlaid onto 15 ml Ficoll gradients in Leucosep tubes, and centrifuged at 1000 g for 20 min. Cells in the band at the plasma/histopaque interface were carefully removed and washed twice with PBS (centrifuged at 400 g for 5 min to harvest). The final pellet was resuspended in freezing medium (90% Heat-inactivated serum, 10% DMSO) to a cell concentration of 4×10^7 cells/ml. The resuspended cells were then cryopreserved (frozen) using a rate controlled freezer, and stored at −140° C. for up to 4 months.
Immediately prior to assay, vials of cryopreserved (frozen) PBMCs were thawed rapidly in a water bath at 37° C. A 1:10 dilution of the cells in trypan blue was prepared and counted. The PBMCs were then diluted in growth media [RPMI 1640 containing 10% fetal calf serum (invitrogen), Penicillin+[…] (Gibco cat. #25030-024, 1:50), L-Glutamine 2 mM, and 1000 units/ml recombinant human IFN-gamma (Preprotech catalogue #300-02)] to a density of 1×10^6 cells/ml, and 50 ul/well dispensed to 384-well clear Greiner polypropylene plates containing 0.25 μl DMSO or test compound in 0.25 μl DMSO. […] Plates were incubated for 24 h at 37° C. in 5% CO2.
A multi-isoform immunoassay was used to quantify IFN-α in PBMC supernatants. Rabbit polyclonal antibody against human IFN-α (catalogue number 31101, Stratech Scientific) was diluted 1:10000 in assay buffer (RPMI 1640 containing 10% fetal calf serum, Invitrogen) and 20 μl was added to each well of an MSD (Meso-Scale Discovery) single small-spot 384-well GAR (goat anti-rabbit antibody coated) plate. The plate was incubated for 1 hour at room temperature with vigorous shaking. Following three washes with PBS, 20 μl of cell supernatant were added to each well of the plate. The plate was then incubated for 1 hour at room temperature with vigorous shaking. A pair of monoclonal antibodies to IFN-α (catalogue numbers 21100 and 21112, Stratech Scientific) were labelled with sulfo-TAG (MSD), diluted 1:1000 in assay buffer and 20 μl added to each well of the plate. The plate was further incubated for 1 hour at room temperature with vigorous shaking. Following three washes with PBS, 30 μl of x2 T buffer (MSD) was added to each well and the plate was read on an MSD Sector 6000 plate reader.
Data were normalised to internal plate controls of 1 uM resiquimod (n=16) and DMSO (n=16). pEC50 values were derived by 4-parameter curve fit with IRLS in ActivityBase, from 11-point, two-fold serial dilution of test compounds.

| SMILES | EC50 |
| --- | --- |
| CCCCOc1nc(N)c2[nH]c(=O)n(CCCC3CCCN(CCC)C3)c2n1 (stereo not drawn) [Example 45, 6-Amino-2-(butyloxy)-9-[3-(1-propyl-3-piperidinyl)propyl]-7,9-dihydro-8H-purin-8-one] | < 1.58 µM |
| CCCCOc1nc(N)c2[nH]c(=O)n(CCCC3CCCCN3C3CCCC3)c2n1 (stereo not drawn) [Example 20, 6-Amino-2-(butyloxy)-9-[3-(1-cyclopentyl-2-piperidinyl)propyl]-7,9-dihydro-8H-purin-8-one] | < 1.58 µM |
| CCC[C@H](C)Oc1nc(N)c2[nH]c(=O)n(CCC3CCCNC3)c2n1 (stereo partly drawn) [Example 40, 6-Amino-2-{[(1S)-1-methylbutyl]oxy}-9-[2-(3-piperidinyl)ethyl]-7,9-dihydro-8H-purin-8-one] | < 1.58 µM |
| CCCCOc1nc(N)c2[nH]c(=O)n(CCCCC3CCCN(CCC4CCCCC4)C3)c2n1 (stereo not drawn) [Example 64, 6-Amino-2-(butyloxy)-9-{4-[1-(2-cyclohexylethyl)-3-piperidinyl]butyl}-7,9-dihydro-8H-burin-8-one] | < 1.58 µM |
| CCCCOc1nc(N)c2[nH]c(=O)n(CCCCCC3CCN(CCC(C)C)CC3)c2n1 [Example 128, 6-amino-2-(butyloxy)-9-{5-[1-(3-methylbutyl)-4-piperidinyl]pentyl}-7,9-dihydro-8H-purin-8-one] | < 1.58 µM |
| CCCCOc1nc(N)c2[nH]c(=O)n(CCCCC3CCCN(C4CCCC4)C3)c2n1 (stereo not drawn) [Example 62, 6-Amino-2-(butyloxy)-9-[4-(1-cyclopentyl-3-piperidinyl)butyl]-7,9-dihydro-8H-purin-8-one] | < 1.58 µM |
| CCCCOc1nc(N)c2[nH]c(=O)n(CCC3CCN(CCCC)CC3)c2n1 [Example 82, 6-Amino-2-(butyloxy)-9-[2-(1-butyl-4-piperidinyl)ethyl]-7,9-dihydro-8H-purin-8-one] | < 1.58 µM |
| CCCCOc1nc(N)c2[nH]c(=O)n(CCC3CCCN(C4CCCC4)C3)c2n1 (stereo not drawn) [Example 36, 6-Amino-2-(butyloxy)-9-[2-(1-cyclopentyl-3-piperidinyl)ethyl]-7,9-dihydro-8H-purin-8-one] | < 1.58 µM |
| CCCCOc1nc(N)c2[nH]c(=O)n(CCC3CCCN(C(CC)CC)C3)c2n1 (stereo not drawn) [Example 35, 6-Amino-2-(butyloxy)-9-{2-[1-(1-ethylpropyl)-3-piperidinyl]ethyl}-7,9-dihydro-8H-purin-8-one] | < 1.58 µM |
| CCCCOc1nc(N)c2[nH]c(=O)n(CCCCC3CCCN(CCC(C)C)C3)c2n1 (stereo not drawn) [Example 61, 6-Amino-2-(butyloxy)-9-{4-[1-(3-methylbutyl)-3-piperidinyl]butyl}-7,9-dihydro-8H-purin-8-one] | < 1.58 µM |
| CCCCOc1nc(N)c2[nH]c(=O)n(CC3CCCN(C4CCCC4)C3)c2n1 (stereo not drawn) [Example 28, 6-Amino-2-(butyloxy)-9-[(1-cyclopentyl-3-piperidinyl)methyl]-7,9-dihydro-8H-purin-8-one hydrochloride] | < 1.58 µM |
| CCCCOc1nc(N)c2[nH]c(=O)n(CCCCC3CCNCC3)c2n1 [Example 107, 6-Amino-2-(butyloxy)-9-[4-(4-piperidinyl)butyl]-7,9-dihydro-8H-purin-8-one] | < 1.58 µM |
| CCCCOc1nc(N)c2[nH]c(=O)n(CCCC3CCCN(C4CCCC4)C3)c2n1 (stereo not drawn) [Example 50, 6-Amino-2-(butyloxy)-9-[3-(1-cyclopentyl-3-piperidinyl)propyl]-7,9-dihydro-8H-purin-8-one] | < 1.58 µM |
| CCCCOc1nc(N)c2[nH]c(=O)n(CCCCC3CCCN(CC4CCCC4)C3)c2n1 (stereo not drawn) [Example 63, 6-Amino-2-(butyloxy)-9-{4-[1-(cyclopentylmethyl)-3-piperidinyl]butyl}-7,9-dihydro-8H-burin-8-one hydrochloride] | < 1.58 µM |
| CCCCOc1nc(N)c2[nH]c(=O)n(CCC3CCN(CCC4CCCCC4)CC3)c2n1 [Example 89, 6-Amino-2-(butyloxy)-9-{2-[1-(2-cyclohexylethyl)-4-piperidinyl]ethyl}-7,9-dihydro-8H-purin-8-one] | < 1.58 µM |
| CCC[C@H](C)Oc1nc(N)c2[nH]c(=O)n(CCCC3CCCN(CC)C3)c2n1 (stereo partly drawn) [Example 54, 6-Amino-9-[3-(1-ethyl-3-piperidinyl)propyl]-2-{[(1S)-1-methylbutyl]oxy}-7,9-dihydro-8H-purin-8-one] | < 1.58 µM |
| CCCCOc1nc(N)c2[nH]c(=O)n(CCC3CCCCN3CC)c2n1 (stereo not drawn) [Example 12, 6-Amino-2-(butyloxy)-9-[2-(1-ethyl-2-piperidinyl)ethyl]-7,9-dihydro-8H-purin-8-one] | < 1.58 µM |

| SMILES | EC50 |
| --- | --- |
| CCC[C@H](C)Oc1nc(N)c2[nH]c(=O)n(CC3CCN(CC)CC3)c2n1 [Example 78, 6-Amino-9-[(1-ethyl-4-piperidinyl)methyl]-2-{[(1S)-1-methylbutyl]oxy}-7,9-dihydro-8H-purin-8-one] | < 1.58 µM |
| CCCCOc1nc(N)c2[nH]c(=O)n(CC3CCN(C4CCCC4)CC3)c2n1 [Example 75, 6-Amino-2-(butyloxy)-9-[(1-cyclopentyl-4-piperidinyl)methyl]-7,9-dihydro-8H-purin-8-one] | < 1.58 µM |
| CCCCOc1nc(N)c2[nH]c(=O)n(CCCCC3CCN(C(C)C)CC3)c2n1 [Example 109, 6-Amino-2-(butyloxy)-9-{4-[1-(1-methylethyl)-4-piperidinyl]butyl}-7,9-dihydro-8H-purin-8-one] | < 1.58 µM |
| CCCCOc1nc(N)c2[nH]c(=O)n(CC3CCCNC3)c2n1 (stereo not drawn) [Example 4, hydrochloride] | < 1.58 µM |
| CCCCOc1nc(N)c2[nH]c(=O)n(CCCC3CCCCN3CC)c2n1 (stereo not drawn) [Example 14, 6-Amino-2-(butyloxy)-9-[3-(1-ethyl-2-piperidinyl)propyl]-7,9-dihydro-8H-purin-8-one] | < 1.58 µM |
| CCCCOc1nc(N)c2[nH]c(=O)n(CCCCC3CCN(CCCC)CC3)c2n1 [Example 110, 6-Amino-2-(butyloxy)-9-[4-(1-butyl-4-piperidinyl)butyl]-7,9-dihydro-8H-purin-8-one] | < 1.58 µM |
| CCCCOc1nc(N)c2[nH]c(=O)n(CC3CCN(CCC(C)C)CC3)c2n1 [Example 74, 6-Amino-2-(butyloxy)-9-{[1-(3-methylbutyl)-4-piperidinyl]methyl}-7,9-dihydro-8H-purin-8-one] | < 1.58 µM |
| CCCCOc1nc(N)c2[nH]c(=O)n(CCCCCC3CCN(CCCC)CC3)c2n1 [Example 126, 6-Amino-2-(butyloxy)-9-[5-(1-butyl-4-piperidinyl)pentyl]-7,9-dihydro-8H-purin-8-one] | < 1.58 µM |
| CCCCOc1nc(N)c2[nH]c(=O)n(CC3CCN(C4CCCCC4)CC3)c2n1 [Example 76, 6-Amino-2-(butyloxy)-9-[(1-cyclohexyl-4-piperidinyl)methyl]-7,9-dihydro-8H-purin-8-one] | < 1.58 µM |
| CCC[C@H](C)Oc1nc(N)c2[nH]c(=O)n(CCCC3CCCNC3)c2n1 (stereo partly drawn) [Example 53, 6-Amino-2-{[(1S)-1-methylbutyl]oxy}-9-[3-(3-piperidinyl)propyl]-7,9-dihydro-8H-purin-8-one] | < 1.58 µM |
| CCCCOc1nc(N)c2[nH]c(=O)n(CCCC3CCCCN3CCCC)c2n1 (stereo not drawn) [Example 17, 6-Amino-2-(butyloxy)-9-[3-(1-butyl-2-piperidinyl)propyl]-7,9-dihydro-8H-purin-8-one] | < 1.58 µM |
| CCC[C@H](C)Oc1nc(N)c2[nH]c(=O)n(CCCCC3CCNCC3)c2n1 [Example 118, 6-Amino-2-{[(1S)-1-methylbutyl]oxy}-9-[4-(4-piperidinyl)butyl]-7,9-dihydro-8H-purin-8-one] | < 1.58 µM |
| CCCCOc1nc(N)c2[nH]c(=O)n(CCCCC3CCCN(CC)C3)c2n1 (stereo not drawn) [Example 56, 6-Amino-2-(butyloxy)-9-[4-(1-ethyl-3-piperidinyl)butyl]-7,9-dihydro-8H-purin-8-one] | < 1.58 µM |
| CCCCOc1nc(N)c2[nH]c(=O)n(CC3CCN(CCC)CC3)c2n1 [Example 70, 6-Amino-2-(butyloxy)-9-[(1-propyl-4-piperidinyl)methyl]-7,9-dihydro-8H-purin-8-one] | < 1.58 µM |
| CCCCOc1nc(N)c2[nH]c(=O)n(CC3CCN(C(C)C)CC3)c2n1 [Example 71, 6-Amino-2-(butyloxy)-9-{[1-(1-methylethyl)-4-piperidinyl]methyl}-7,9-dihydro-8H-purin-8-one] | < 1.58 µM |
| CCCCOc1nc(N)c2[nH]c(=O)n(CCCC3CCCCN3CCC)c2n1 (stereo not drawn) [Example 15, 6-Amino-2-(butyloxy)-9-[3-(1-propyl-2-piperidinyl)propyl]-7,9-dihydro-8H-purin-8-one] | < 1.58 µM |
